Measured values: patent US12240840B2, “Amide-substituted heterocyclic compounds for the treatment of conditions related to the modulation of IL-12, IL-23 and/or IFN-alpha” (BRISTOL-MYERS SQUIBB COMPANY, priority 2018, dated 2025)

Tested on: IFNα-induced pSTAT5 (pY694) in CD3 positive cells of human whole blood
Assay: IFNα-Induced STAT Phosphorylation in Human Whole Blood
Format: cell-based
Conditions: Homo sapiens, 1 h compound incubation, 1000 U/mL recombinant human IFNα A/D for 15 min, pSTAT5 in CD3 positive population, read-out: Human WB IFNα-Induced Stat Phosph. (IC50)
Outline: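 Read-out is median fluorescence intensity of pSTAT5 (pY694) in the CD3-positive gate, by flow cytometry after fix/lyse and permeabilization. Before that, whole human blood anticoagulated with EDTA or ACD-A received compound for an hour and 1000 U/mL IFNα A/D for 15 min.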

[2H]C([2H])([2H])NC(=O)c1nnc(NC(=O)C2CC2)cc1Nc1cccc(-c2ncc(C(=O)N[C@H]3CN4CCC3CC4)s2)c1OC [Example 327]
IC50: 150 nM

[2H]C([2H])([2H])NC(=O)c1nnc(NC(=O)C2CC2)cc1Nc1cccc(-c2ncc(C(=O)N3CCC3C)s2)c1OC (stereo not drawn) [Example 328]
IC50: 160 nM

[2H]C([2H])([2H])NC(=O)c1nnc(NC(=O)C2CC2)cc1Nc1cccc(-c2ncc(C(=O)NCC3CCCCN3C)s2)c1OC (stereo not drawn) [Example 329]
IC50: 50 nM

[2H]C([2H])([2H])NC(=O)c1nnc(NC(=O)C2CC2)cc1Nc1cccc(-c2ncc(C(=O)NC[C@H]3CCCN3CC)s2)c1OC [Example 330]
IC50: 70 nM

[2H]C([2H])([2H])NC(=O)c1nnc(NC(=O)C2CC2)cc1Nc1cccc(-c2ncc(C(=O)N3CC(=O)NC(=O)C3)s2)c1OC [Example 331]
IC50: 560 nM

[2H]C([2H])([2H])NC(=O)c1nnc(NC(=O)C2CC2)cc1Nc1cccc(-c2ncc(C(=O)NCC(O)CN3CCCC3=O)s2)c1OC (stereo not drawn) [Example 332]
IC50: 40 nM

[2H]C([2H])([2H])NC(=O)c1nnc(NC(=O)C2CC2)cc1Nc1cccc(-c2ncc(C(=O)N3CC(N(C)C)C3)s2)c1OC [Example 334]
IC50: 50 nM

[2H]C([2H])([2H])NC(=O)c1nnc(NC(=O)C2CC2)cc1Nc1cccc(-c2ncc(C(=O)NCCCN(CC)CC)s2)c1OC [Example 335]
IC50: 50 nM

[2H]C([2H])([2H])NC(=O)c1nnc(NC(=O)C2CC2)cc1Nc1cccc(-c2ncc(C(=O)N3CCNC(=O)C3C)s2)c1OC (stereo not drawn) [Example 336]
IC50: 260 nM

[2H]C([2H])([2H])NC(=O)c1nnc(NC(=O)C2CC2)cc1Nc1cccc(-c2ncc(C(=O)NC3CCCN(C)C3)s2)c1OC (stereo not drawn) [Example 337]
IC50: 70 nM

[2H]C([2H])([2H])NC(=O)c1nnc(NC(=O)C2CC2)cc1Nc1cccc(-c2ncc(C(=O)N[C@H]3C[C@H]4CC[C@@H](C3)N4C)s2)c1OC [Example 338]
IC50: 420 nM

[2H]C([2H])([2H])NC(=O)c1nnc(NC(=O)C2CC2)cc1Nc1cccc(-c2ncc(C(=O)NCC(C)(C)CN(C)C)s2)c1OC [Example 339]
IC50: 40 nM

[2H]C([2H])([2H])NC(=O)c1nnc(NC(=O)C2CC2)cc1Nc1cccc(-c2ncc(C(=O)NCCCN3CCCC3)s2)c1OC [Example 340]
IC50: 100 nM

[2H]C([2H])([2H])NC(=O)c1nnc(NC(=O)C2CC2)cc1Nc1cccc(-c2ncc(C(=O)NCCCN3CCN(C(C)C)CC3)s2)c1OC [Example 341]
IC50: 110 nM

[2H]C([2H])([2H])NC(=O)c1nnc(NC(=O)C2CC2)cc1Nc1cccc(-c2ncc(C(=O)N3CCC(N4CCN(CCO)CC4)CC3)s2)c1OC [Example 342]
IC50: 80 nM

[2H]C([2H])([2H])NC(=O)c1nnc(NC(=O)C2CC2)cc1Nc1cccc(-c2ncc(C(=O)N3CCC(N(CC)CC)CC3)s2)c1OC [Example 343]
IC50: 22 nM

[2H]C([2H])([2H])NC(=O)c1nnc(NC(=O)C2CC2)cc1Nc1cccc(-c2ncc(C(=O)N3[C@@H]4CC[C@H]3CC(N(C)C)C4)s2)c1OC (stereo partly drawn) [Example 344]
IC50: 30 nM

[2H]C([2H])([2H])NC(=O)c1nnc(NC(=O)C2CC2)cc1Nc1cccc(-c2ncc(C(=O)N3CC(CO)C3)s2)c1OC [Example 345]
IC50: 180 nM

[2H]C([2H])([2H])NC(=O)c1nnc(NC(=O)C2CC2)cc1Nc1cccc(-c2ncc(C(=O)N3CC(C)(O)C3)s2)c1OC [Example 346]
IC50: 90 nM

[2H]C([2H])([2H])NC(=O)c1nnc(NC(=O)C2CC2)cc1Nc1cccc(-c2ncc(C(=O)NCCN3CCCC(F)C3)s2)c1OC (stereo not drawn) [Example 347]
IC50: 13 nM

[2H]C([2H])([2H])NC(=O)c1nnc(NC(=O)C2CC2)cc1Nc1cccc(-c2ncc(C(=O)NCC(C)N3CCCCC3)s2)c1OC (stereo not drawn) [Example 349]
IC50: 70 nM

[2H]C([2H])([2H])NC(=O)c1nnc(NC(=O)C2CC2)cc1Nc1cccc(-c2ncc(C(=O)N3CCC(N4CCCC4)CC3)s2)c1OC [Example 350]
IC50: 40 nM

[2H]C([2H])([2H])NC(=O)c1nnc(NC(=O)C2CC2)cc1Nc1cccc(-c2ncc(C(=O)N3CCC(N4CCCCC4)CC3)s2)c1OC [Example 351]
IC50: 60 nM

[2H]C([2H])([2H])NC(=O)c1nnc(NC(=O)C2CC2)cc1Nc1cccc(-c2ncc(C(=O)NCC(C)CN(C)C)s2)c1OC (stereo not drawn) [Example 352]
IC50: 70 nM

[2H]C([2H])([2H])NC(=O)c1nnc(NC(=O)C2CC2)cc1Nc1cccc(-c2ncc(C(=O)N3CCC(CCCO)CC3)s2)c1OC [Example 353]
IC50: 170 nM

[2H]C([2H])([2H])NC(=O)c1nnc(NC(=O)C2CC2)cc1Nc1cccc(-c2nc(C)c(C(=O)N3CCC(N(C)C)CC3)s2)c1OC [Example 354]
IC50: 80 nM

[2H]C([2H])([2H])NC(=O)c1nnc(NC(=O)C2CC2)cc1Nc1cccc(-c2nc(C)c(C(=O)NCCC3CCCN3C)s2)c1OC (stereo not drawn) [Example 355]
IC50: 380 nM

[2H]C([2H])([2H])NC(=O)c1nnc(NC(=O)C2CC2)cc1Nc1cccc(-c2nc(C)c(C(=O)N3CCOCC3)s2)c1OC [Example 356]
IC50: 80 nM

[2H]C([2H])([2H])NC(=O)c1nnc(NC(=O)C2CC2)cc1Nc1cccc(-c2nc(C)c(C(=O)NCCCN(C)C)s2)c1OC [Example 357]
IC50: 880 nM

[2H]C([2H])([2H])NC(=O)c1nnc(NC(=O)C2CC2)cc1Nc1cccc(-c2nc(C)c(C(=O)N3CCC3)s2)c1OC [Example 358]
IC50: 210 nM

[2H]C([2H])([2H])NC(=O)c1nnc(NC(=O)C2CC2)cc1Nc1cccc(-c2nc(C)c(C(=O)N3CCC(N4CCN(CCO)CC4)CC3)s2)c1OC [Example 359]
IC50: 340 nM

[2H]C([2H])([2H])NC(=O)c1nnc(NC(=O)C2CC2)cc1Nc1cccc(-c2nc(C)c(C(=O)NCC)s2)c1OC [Example 360]
IC50: 270 nM

[2H]C([2H])([2H])NC(=O)c1nnc(NC(=O)C2CC2)cc1Nc1cccc(-c2nc(C)c(C(=O)N3CCC(N4CCCC4)CC3)s2)c1OC [Example 361]
IC50: 190 nM

[2H]C([2H])([2H])NC(=O)c1nnc(NC(=O)C2CC2)cc1Nc1cccc(-c2nc(C)c(C(=O)N3C[C@@H](C)O[C@@H](C)C3)s2)c1OC [Example 362]
IC50: 270 nM

[2H]C([2H])([2H])NC(=O)c1nnc(NC(=O)C2CC2)cc1Nc1cccc(-c2nc(C)c(C(=O)N3CCNC(=O)C3)s2)c1OC [Example 363]
IC50: 240 nM

[2H]C([2H])([2H])NC(=O)c1nnc(NC(=O)C2CC2)cc1Nc1cccc(-c2nc(C)c(C(=O)NC(C)C)s2)c1OC [Example 364]
IC50: 440 nM

[2H]C([2H])([2H])NC(=O)c1nnc(NC(=O)C2CC2)cc1Nc1cccc(-c2nc(C)c(C(=O)NC3CCC(N(C)C)CC3)s2)c1OC (stereo not drawn) [Example 365]
IC50: 320 nM

[2H]C([2H])([2H])NC(=O)c1nnc(NC(=O)C2CC2)cc1Nc1cccc(-c2nc(C)c(C(=O)NCCOC)s2)c1OC [Example 366]
IC50: 510 nM

[2H]C([2H])([2H])NC(=O)c1nnc(NC(=O)C2CC2)cc1Nc1cccc(-c2nc(C)c(C(=O)N(C)C)s2)c1OC [Example 367]
IC50: 60 nM

[2H]C([2H])([2H])NC(=O)c1nnc(NC(=O)C2CC2)cc1Nc1cccc(-c2nc(C)c(C(=O)NCC3CCN(C)C3)s2)c1OC (stereo not drawn) [Example 368]
IC50: 350 nM

[2H]C([2H])([2H])NC(=O)c1nnc(NC(=O)C2CC2)cc1Nc1cccc(-c2nc(C)c(C(=O)N3CCN(C(C)C)CC3)s2)c1OC [Example 369]
IC50: 50 nM

[2H]C([2H])([2H])NC(=O)c1nnc(NC(=O)C2CC2)cc1Nc1cccc(-c2nc(C)c(C(=O)N(C)CC)s2)c1OC [Example 370]
IC50: 160 nM

[2H]C([2H])([2H])NC(=O)c1nnc(NC(=O)C2CC2)cc1Nc1cccc(-c2nc(C)c(C(=O)N3CCC(CCN4CCCC4)CC3)s2)c1OC [Example 371]
IC50: 310 nM

[2H]C([2H])([2H])NC(=O)c1nnc(NC(=O)C2CC2)cc1Nc1cccc(-c2nc(C)c(C(=O)N3CCS(=O)(=O)CC3)s2)c1OC [Example 372]
IC50: 150 nM

COc1c(Nc2cc(N)nnc2C(N)=O)cccc1-c1ncc(C(=O)NCCC2CCCN2C)s1 (stereo not drawn) [Example 377]
IC50: 1410 nM

[2H]C([2H])([2H])NC(=O)c1nnc(Nc2ccc(OC)nn2)cc1Nc1cccc(-c2nc(C(=O)N(C)C)cs2)c1OC [Example 379]
IC50: 560 nM

[2H]C([2H])([2H])NC(=O)c1nnc(Nc2cnn(C)n2)cc1Nc1cccc(-c2ncc(C(=O)N(C)C)s2)c1OC [Example 381]
IC50: 130 nM

[2H]C([2H])([2H])NC(=O)c1nnc(Nc2cc(C)n(C)n2)cc1Nc1cccc(-c2ncc(C(=O)N3CCS(=O)(=O)CC3)s2)c1OC [Example 382]
IC50: 100 nM

[2H]C([2H])([2H])NC(=O)c1nnc(Nc2ccc(C)nn2)cc1Nc1cccc(-c2ncc(C(=O)N3CCS(=O)(=O)CC3)s2)c1OC [Example 383]
IC50: 30 nM

[2H]C([2H])([2H])NC(=O)c1nnc(Nc2ccc(C)nn2)cc1Nc1cccc(-c2ncc(C(=O)N(C)C)s2)c1OC [Example 384]
IC50: 40 nM

[2H]C([2H])([2H])NC(=O)c1nnc(Nc2cnn(C)n2)cc1Nc1cccc(-c2ncc(C(C)O)s2)c1OC (stereo not drawn) [Example 385]
IC50: 180 nM

[2H]C([2H])([2H])NC(=O)c1nnc(Nc2cnn(C)n2)cc1Nc1cccc(-c2ncc(CO)s2)c1OC [Example 386]
IC50: 490 nM

[2H]C([2H])([2H])NC(=O)c1nnc(Nc2ccc(OC)nn2)cc1Nc1cccc(-c2ncc(CNC(C)=O)s2)c1OC [Example 387]
IC50: 270 nM

[2H]C([2H])([2H])NC(=O)c1nnc(Nc2ccc(OC)nn2)cc1Nc1cccc(-c2ncc(CNC(=O)OC(C)(C)C)s2)c1OC [Example 388]
IC50: > 10000 nM

[2H]C([2H])([2H])NC(=O)c1nnc(Nc2ccc(OC)nn2)cc1Nc1cccc(-c2ncc(CN)s2)c1OC [Example 389]
IC50: 570 nM

[2H]C([2H])([2H])NC(=O)c1nnc(Nc2ccc(OC)nn2)cc1Nc1cccc(-c2ncc(CNS(C)(=O)=O)s2)c1OC [Example 390]
IC50: 240 nM

[2H]C([2H])([2H])NC(=O)c1nnc(Nc2ccc(OC)nn2)cc1Nc1cccc(-c2ncc(CNC(=O)OC)s2)c1OC [Example 391]
IC50: 820 nM
